From patent US10752587B2, “Homobispiperidinyl derivatives as liver X receptor beta agonists, compositions and their use” (Merck Sharp & Dohme Corp., priority 2015, dated 2020) come the findings set out here.

Assay [1] concerns the target T1, glutathione-S-transferase (GST) tagged LXRbeta LBD (ligand binding domain) (Homo sapiens, UniProt P55055).
T1 construct: purchased Invitrogen pv4658.pps
T1 sequence (P55055 222-460 limits assumed): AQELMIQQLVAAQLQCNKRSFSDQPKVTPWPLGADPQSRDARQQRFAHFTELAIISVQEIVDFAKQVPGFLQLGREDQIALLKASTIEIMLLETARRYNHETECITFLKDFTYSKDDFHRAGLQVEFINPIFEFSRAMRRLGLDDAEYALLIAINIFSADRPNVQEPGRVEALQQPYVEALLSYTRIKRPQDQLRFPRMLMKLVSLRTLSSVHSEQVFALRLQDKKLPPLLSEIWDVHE
The assay can be described thus: LanthaScreen TR-FRET Liver X Receptor Coactivator Assay, co-activator recruitment to LXRbeta LBD. The assay is classed as biochemical. Conditions: for Emax: read-out: LXR beta Activity @ max dose (%); for EC50: potency (Inflection Point, IP), co-activator recruitment to LXRbeta LBD, in relation to T0901317, read-out: LXR beta IP. The essentials: (§1)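 LXRα- or LXRβ-LBD protein was added to test compounds, then fluorescein-labelled coactivator peptide plus Tb-anti-GST antibody; after room-temperature incubation, TR-FRET was read. Inflection point (IP) and Emax were expressed relative to the dual agonist reference T0901317.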
(TR-FRET usually uses a lanthanide donor and a delayed reading to cut background.)

The target of assay [2] is T2, glutathione-S-transferase (GST) tagged LXRalpha LBD (ligand binding domain) (Homo sapiens, UniProt Q13133).
T2 construct: purchased Invitrogen pv4655
T2 sequence (Q13133 209-447 limits assumed): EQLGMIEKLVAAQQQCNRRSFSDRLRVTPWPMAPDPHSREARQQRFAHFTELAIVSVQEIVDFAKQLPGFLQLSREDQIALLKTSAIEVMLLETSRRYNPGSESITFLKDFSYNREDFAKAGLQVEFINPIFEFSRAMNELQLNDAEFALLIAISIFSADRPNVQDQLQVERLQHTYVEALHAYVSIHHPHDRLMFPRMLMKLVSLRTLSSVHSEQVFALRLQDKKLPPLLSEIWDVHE
Briefly: LanthaScreen TR-FRET Liver X Receptor Coactivator Assay, co-activator recruitment to LXRalpha LBD. The assay is classed as biochemical. As to conditions: for Emax: read-out: LXR alpha Activity @ max dose (%); for EC50 / LXR alpha IP (nM): potency (Inflection Point, IP), co-activator recruitment to LXRalpha LBD, in relation to T0901317; for EC50: read-out: LXR alpha IP. In short, it runs like this:
as §1

Where [3] appears, read: efficacy at max dose, in relation to reference dual agonist T0901317.

Turning to `CN(C)C(=O)c1ccc(N2CCC(CC3CCN(C(=O)[C@](O)(c4ccccc4)C(F)(F)C(F)(F)F)CC3)CC2)nc1Cl` [Example 7-60, 2-chloro-N,N-dimethyl-6-[4-({1-[(2R)-3,3,4,4,4-pentafluoro-2-hydroxy-2-phenylbutanoyl]piperidin-4-yl}methyl)piperidin-1-yl]pyridine-3-carboxamide], the Emax stood at 153% in assay [1] (setting [3]) and 60% in assay [2] (setting [3]). For the same molecule, the results for the EC50 in assay [1] and in assay [2] were 0.007 µM and 0.148 µM, respectively.

Consider `CN(C)C(=O)c1ccc(N2CCC(CC3CCN(C(=O)C(C)(C)c4ccccc4)CC3)CC2)nc1Cl` [Example 7-61, 2-chloro-N,N-dimethyl-6-(4-{[1-(2-methyl-2-phenylpropanoyl)piperidin-4-yl]methyl}piperidin-1-yl)pyridine-3-carboxamide], for which the Emax is 68% in assay [1] (setting [3]) and 21% in assay [2] (setting [3]). Besides, the EC50 in assay [1] amounted to 0.045 µM; in assay [2], 0.817 µM.

On to `CN(C)C(=O)c1ccc(N2CCC(CC3CCN(C(=O)[C@@](O)(c4ccccc4)C(F)(F)F)CC3)CC2)nc1Cl` [Example 7-62, 2-chloro-N,N-dimethyl-6-[4-({1-[(2S)-3,3,3-trifluoro-2-hydroxy-2-phenylpropanoyl]piperidin-4-yl}methyl)piperidin-1-yl]pyridine-3-carboxamide], for which the Emax in assay [1] (setting [3]) amounted to 119%; in assay [2] (setting [3]) it was 31%. Also, the EC50 turned out to be 0.082 µM in assay [1] and 1.35 µM in assay [2].

In the case of `CN(C)C(=O)c1ccc(N2CCC(CC3CCN(C(=O)[C@](O)(c4ccccc4)C(F)(F)F)CC3)CC2)nc1Cl` [Example 7-63, 2-chloro-N,N-dimethyl-6-[4-({1-[(2R)-3,3,3-trifluoro-2-hydroxy-2-phenylpropanoyl]piperidin-4-yl}methyl)piperidin-1-yl]pyridine-3-carboxamide], the Emax in assay [1] (setting [3]) worked out at 102%; in assay [2] (setting [3]), 39%. The EC50 in assay [1] was found to be 0.006 µM; in assay [2], 0.158 µM.

As to `CN(C)C(=O)c1ccc(N2CCC(CC3CCN(C(=O)C4(c5ccccc5)CCCC4)CC3)CC2)nc1Cl` [Example 7-64, 2-chloro-N,N-dimethyl-6-[4-({1-[(1-phenylcyclopentyl)carbonyl]piperidin-4-yl}methyl)piperidin-1-yl]pyridine-3-carboxamide], the Emax in assay [1] (setting [3]) worked out at 80%; in assay [2] (setting [3]) it was 19%. Besides, the EC50 in assay [1] was 0.057 µM; in assay [2], 0.663 µM.

In the case of `CN(C)C(=O)c1ccc(N2CCC(CC3CCN(C(=O)C4(c5ccccc5F)CCCC4)CC3)CC2)nc1Cl` [Example 7-65, 2-chloro-6-{4-[(1-{[1-(2-fluorophenyl)cyclopentyl]carbonyl}piperidin-4-yl)methyl]piperidin-1-yl}-N,N-dimethylpyridine-3-carboxamide], the Emax in assay [1] (setting [3]) was 95%; in assay [2] (setting [3]), 29%. Besides, the EC50 in assay [1] was 0.048 µM; in assay [2] it was 0.658 µM.

Consider `CN(C)C(=O)c1ccc(N2CCC(CC3CCN(C(=O)C(O)(c4cccnc4)C(F)(F)F)CC3)CC2)nc1Cl` (centres unmarked) [Example 7-66, 2-chloro-N,N-dimethyl-6-(4-{[1-(3,3,3-trifuoro-2-hydroxy-2-pyridin-3-ylpropanoyl)piperidin-4-yl]methyl}piperidin-1-yl)pyridine-3-carboxamide], for which the Emax in assay [1] (setting [3]) was determined as 108%; in assay [2] (setting [3]), 48%. Further, the EC50 in assay [1] stood at 0.083 µM; in assay [2] it was 1.59 µM.

With `CN(C)C(=O)c1ccc(N2CCC(CC3CCN(C(=O)[C@](O)(c4cccc(Br)c4)C(F)(F)F)CC3)CC2)nc1Cl` [Example 7-67, 6-[4-({1-[(2R)-2-(3-bromophenyl)-3,3,3-trifluoro-2-hydroxypropanoyl]piperidin-4-yl}methyl)piperidin-1-yl]-2-chloro-N,N-dimethylpyridine-3-carboxamide], the figures for the Emax in assay [1] (setting [3]) and in assay [2] (setting [3]) were 73% and 0%, respectively. Moreover, the EC50 worked out at 0.004 µM in assay [1] and 0.109 µM in assay [2].

`CN(C)C(=O)c1ccc(N2CCC(CC3CCN(C(=O)[C@@](O)(c4cccc(Br)c4)C(F)(F)F)CC3)CC2)nc1Cl` [Example 7-68, 6-[4-({1-[(2S)-2-(3-bromophenyl)-3,3,3-trifluoro-2-hydroxypropanoyl]piperidin-4-yl}methyl)piperidin-1-yl]-2-chloro-N,N-dimethylpyridine-3-carboxamide]: the Emax in assay [1] (setting [3]) was 118%; in assay [2] (setting [3]), 12%. Further, the EC50 in assay [1] was found to be 0.064 µM; in assay [2], 1.02 µM.

For the molecule `CN(C)C(=O)c1ccc(N2CCC(CC3CCN(C(=O)[C@](O)(c4cccc(Cl)c4)C(F)(F)F)CC3)CC2)nc1Cl` [Example 7-69, 2-chloro-6-[4-({1-[(2R)-2-(3-chlorophenyl)-3,3,3-trifluoro-2-hydroxypropanoyl]piperidin-4-yl}methyl)piperidin-1-yl]-N,N-dimethylpyridine-3-carboxamide], the figures for the Emax in assay [1] (setting [3]) and in assay [2] (setting [3]) were 82% and 30%, respectively. Also, the results for the EC50 in assay [1] and in assay [2] were 0.003 µM and 0.07 µM, respectively.

In the case of `CN(C)C(=O)c1ccc(N2CCC(CC3CCN(C(=O)[C@@](O)(c4cccc(Cl)c4)C(F)(F)F)CC3)CC2)nc1Cl` [Example 7-70, 2-chloro-6-[4-({1-[(2S)-2-(3-chlorophenyl)-3,3,3-trifluoro-2-hydroxypropanoyl]piperidin-4-yl}methyl)piperidin-1-yl]-N,N-dimethyl-pyridine-3-carboxamide], the Emax in assay [1] (setting [3]) was 110%; in assay [2] (setting [3]), 34%. For the same molecule, the EC50 is 0.025 µM in assay [1] and 1.25 µM in assay [2].

On to `CN(C)C(=O)c1ccc(N2CCC(CC3CCN(C(=O)[C@@](O)(c4ccccc4F)C(F)(F)F)CC3)CC2)nc1Cl` [Example 7-71, 2-chloro-N,N-dimethyl-6-[4-({1-[(2S)-3,3,3-trifluoro-2-(2-fluorophenyl)-2-hydroxypropanoyl]piperidin-4-yl}methyl)piperidin-1-yl]pyridine-3-carboxamide], for which the figures for the Emax in assay [1] (setting [3]) and in assay [2] (setting [3]) were 122% and 45%, respectively. Further, the EC50 in assay [1] was determined as 0.055 µM; in assay [2], 2.06 µM.

For the molecule `CN(C)C(=O)c1ccc(N2CCC(CC3CCN(C(=O)[C@](O)(c4cccc(F)c4)C(F)(F)F)CC3)CC2)nc1Cl` [Example 7-72, 2-chloro-N,N-dimethyl-6-[4-({1-[(2R)-3,3,3-trifluoro-2-(3-fluorophenyl)-2-hydroxypropanoyl]piperidin-4-yl}methyl)piperidin-1-yl]pyridine-3-carboxamide], the values for the Emax in assay [1] (setting [3]) and in assay [2] (setting [3]) were 91% and 50%, respectively. Also, the EC50 in assay [1] came to 0.003 µM; in assay [2] it was 0.088 µM.

As to `CN(C)C(=O)c1ccc(N2CCC(CC3CCN(C(=O)[C@@](O)(c4cccc(F)c4)C(F)(F)F)CC3)CC2)nc1Cl` [Example 7-73, 2-chloro-N,N-dimethyl-6-[4-({1-[(2S)-3,3,3-trifluoro-2-(3-fluorophenyl)-2-hydroxypropanoyl]piperidin-4-yl}methyl)piperidin-1-yl]pyridine-3-carboxamide], the Emax stood at 128% in assay [1] (setting [3]) and 47% in assay [2] (setting [3]). Moreover, the EC50 came to 0.047 µM in assay [1] and 0.922 µM in assay [2].

`COc1cccc([C@@](O)(C(=O)N2CCC(CC3CCN(c4ccc(C(=O)N(C)C)c(Cl)n4)CC3)CC2)C(F)(F)F)c1` [Example 7-74, 2-chloro-N,N-dimethyl-6-[4-({1-[(2R)-3,3,3-trifluoro-2-hydroxy-2-(3-methoxyphenyl)propanoyl]piperidin-4-yl}methyl)piperidin-1-yl] pyridine-3-carboxamide]: the “LXR beta Activity @ max dose (%)” value in assay [1] (setting [3]) is reported as 61%. In addition, the EC50 in assay [1] was found to be 0.007 µM. Also, the “LXR alpha Activity @ max dose (%)” value in assay [2] (setting [3]) is on record as 9%. In addition, in assay [2], the “LXR alpha IP (nM)” value was “NO IP”.

`CN(C)C(=O)c1ccc(N2CCC(CC3CCN(C(=O)[C@](O)(c4cccc(OC(F)(F)F)c4)C(F)(F)F)CC3)CC2)nc1Cl` [Example 7-75, 2-chloro-N,N-dimethyl-6-{4-[(1-{(2R)-3,3,3-trifluoro-2-hydroxy-2-[3-(trifluoromethoxy)phenyl]propanoyl}piperidin-4-yl)methyl]piperidin-1-yl}pyridine-3-carboxamide]: the Emax in assay [1] (setting [3]) worked out at 67%; in assay [2] (setting [3]) it was 13%. Further, in assay [1], the EC50 turned out to be 0.01 µM. Also, in assay [2], the “LXR alpha IP (nM)” value is recorded as “NO IP”.

Consider `CC(C)Oc1cccc(C(O)(C(=O)N2CCC(CC3CCN(c4ccc(C(=O)N(C)C)c(Cl)n4)CC3)CC2)C(F)(F)F)c1` (centres unmarked) [Example 7-76, 2-chloro-N,N-dimethyl-6-{4-[(1-{3,3,3-trifluoro-2-hydroxy-2-[3-(1-methylethoxy)phenyl]propanoyl}piperidin-4-yl)methyl]piperidin-1-yl}pyridine-3-carboxamide], for which the Emax in assay [1] (setting [3]) is 56%; in assay [2] (setting [3]), 10%. Further, in assay [1], the EC50 was determined as 0.01 µM. Also, the “LXR alpha IP (nM)” value in assay [2] is reported as “NO IP”.
